Data reported in ChEMBL document CHEMBL5143536, “Dihydroartemisinin improves hypercholesterolemia in ovariectomized mice via enhancing vectorial transport of cholesterol and bile acids from blood to bile” (Bioorg Med Chem, 2022).
The source made the active and inactive calls.

Columns and labels:
Type in all cases: functional, organism-based
Mus musculus [1] = assay: Hypocholesterolemic activity in OVX-induced C57BL/6 mouse model assessed as increase in Elovl5 mRNA expression in liver at 150 mg/kg, ig for 4 weeks by qRT-PCR analysis
Mus musculus [2] = assay: Hypocholesterolemic activity in OVX-induced C57BL/6 mouse model assessed as increase in HDL-C concentration in serum at 150 mg/kg, ig for 4 weeks
Mus musculus [3] = assay: Hypocholesterolemic activity in OVX-induced C57BL/6 mouse model assessed as increase in Fasn mRNA expression in liver at 150 mg/kg, ig for 4 weeks by qRT-PCR analysis
Mus musculus [4] = assay: Hypocholesterolemic activity in OVX-induced C57BL/6 mouse model assessed as increase in Scd1 mRNA expression in liver at 150 mg/kg, ig for 4 weeks by qRT-PCR analysis
Mus musculus [5] = assay: Hypocholesterolemic activity in OVX-induced C57BL/6 mouse model assessed as increase in SCD1 protein expression in liver at 150 mg/kg, ig for 4 weeks by western blot analysis
Mus musculus [6] = assay: Hypocholesterolemic activity in OVX-induced C57BL/6 mouse model assessed as decrease in Fabp6 mRNA expression in Ileum […] at 150 mg/kg, ig for 4 weeks by qRT-PCR analysis
Mus musculus [7] = assay: Hypocholesterolemic activity in OVX-induced C57BL/6 mouse model assessed as increase in Elovl6 mRNA expression in liver at 150 mg/kg, ig for 4 weeks by qRT-PCR analysis
Mus musculus [8] = assay: Hypocholesterolemic activity in OVX-induced C57BL/6 mouse model assessed as increase in Abcg8 mRNA expression in liver in liver at 150 mg/kg, ig for 4 weeks by qRT-PCR analysis
Mus musculus [9] = assay: Hypocholesterolemic activity in OVX-induced C57BL/6 mouse model assessed as decrease in size of lipid droplet concentration in […] at 150 mg/kg, ig for 4 weeks by H and E staining based assay; conditions: Liver
Mus musculus [10] = assay: Hypocholesterolemic activity in OVX-induced C57BL/6 mouse model assessed as increase in Abcb1a mRNA expression in liver in liver at 150 mg/kg, ig for 4 weeks by qRT-PCR analysis
Mus musculus [11] = assay: Hypocholesterolemic activity in OVX-induced C57BL/6 mouse model assessed as increase in Abcg8 protein expression in liver in liver at 150 mg/kg, ig for 4 weeks by western blot analysis
Mus musculus [12] = assay: Hypocholesterolemic activity in OVX-induced C57BL/6 mouse model assessed as increase in CD36 mRNA expression in liver at 150 mg/kg, ig for 4 weeks by qRT-PCR analysis
Mus musculus [13] = assay: Hypocholesterolemic activity in OVX-induced C57BL/6 mouse model assessed as decrease in TC concentration in serum at 150 mg/kg, ig for 4 weeks
Mus musculus [14] = assay: Hypocholesterolemic activity in OVX-induced C57BL/6 mouse model assessed as decrease in LDL-C concentration in serum at 150 mg/kg, ig for 4 weeks
Mus musculus [15] = assay: Hypocholesterolemic activity in OVX-induced C57BL/6 mouse model assessed as increase in CD36 protein expression in liver at 150 mg/kg, ig for 4 weeks by western blot analysis
Mus musculus [16] = assay: Hypocholesterolemic activity in OVX-induced C57BL/6 mouse model assessed as decrease in number of lipid droplet concentration in liver at 150 mg/kg, ig for 4 weeks by H and E staining based assay
Mus musculus [17] = assay: Hypocholesterolemic activity in OVX-induced C57BL/6 mouse model assessed as decrease in Slc10a2 mRNA expression in Ileum at 150 mg/kg, ig for 4 weeks by qRT-PCR analysis
Mus musculus [18] = assay: Hypocholesterolemic activity in OVX-induced C57BL/6 mouse model assessed as increase in Fasn protein expression in liver at 150 mg/kg, ig for 4 weeks by western blot analysis
Mus musculus [19] = assay: Hypocholesterolemic activity in OVX-induced C57BL/6 mouse model assessed as increase in Abcb4 mRNA expression in liver in liver at 150 mg/kg, ig for 4 weeks by qRT-PCR analysis
Mus musculus [20] = assay: Hypocholesterolemic activity in OVX-induced C57BL/6 mouse model assessed as increase in Slcob2 mRNA expression in liver in liver at 150 mg/kg, ig for 4 weeks by qRT-PCR analysis
Mus musculus [21] = assay: Hypocholesterolemic activity in OVX-induced C57BL/6 mouse model assessed as increase in ACACa protein expression in liver at 150 mg/kg, ig for 4 weeks by western blot analysis
Mus musculus [22] = assay: Hypocholesterolemic activity in OVX-induced C57BL/6 mouse model assessed as increase in Cyp7b1 mRNA expression in liver in liver at 150 mg/kg, ig for 4 weeks by qRT-PCR analysis
Mus musculus [23] = assay: Hypocholesterolemic activity in OVX-induced C57BL/6 mouse model assessed as increase in Slc10a1 mRNA expression in liver in liver at 150 mg/kg, ig for 4 weeks by qRT-PCR analysis
Mus musculus [24] = assay: Hypocholesterolemic activity in OVX-induced C57BL/6 mouse model assessed as increase in Abcg5 protein expression in liver in liver at 150 mg/kg, ig for 4 weeks by western blot analysis
Mus musculus [25] = assay: Hypocholesterolemic activity in OVX-induced C57BL/6 mouse model assessed as increase in Abcg5 mRNA expression in liver in liver at 150 mg/kg, ig for 4 weeks by qRT-PCR analysis

Measured: Activity

C[C@H]1[C@@H](O)O[C@@H]2O[C@@]3(C)CC[C@H]4[C@H](C)CC[C@@H]1[C@@]24OO3
active: Mus musculus [1] | Mus musculus [2] | Mus musculus [3] | Mus musculus [4] | Mus musculus [5] | Mus musculus [6] | Mus musculus [7] | Mus musculus [8] | Mus musculus [9] | Mus musculus [10] | Mus musculus [11] | Mus musculus [12] | Mus musculus [13] | Mus musculus [14] | Mus musculus [15] | Mus musculus [16] | Mus musculus [17] | Mus musculus [18] | Mus musculus [19] | Mus musculus [20] | Mus musculus [21] | Mus musculus [22] | Mus musculus [23] | Mus musculus [24] | Mus musculus [25]
